Assay results reported in patent US10780074B2, “Compounds and uses thereof” (Sunovion Pharmaceuticals Inc., priority 2017, dated 2020).
Counter-ions that a name gives are not always drawn. Like-named read-outs stand apart in the source and are kept apart here.

System: behaviors of compound-treated mice
Test: Neuropharmacological Assay (SmartCube)
Assay type: in vivo
Conditions: for minimal effective dose: Mus musculus, ip, 0.25 h, dose having 50% or more total activity in SmartCube, read-out: MED (minimal effective dose)
In short: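 Behavioral signatures were captured automatically by video, and each drug class received a probability for the best of three i.p. doses given 15 min pre-test (vehicle: Pharmasolve/PEG/propylene glycol). Potency is given as MED, the lowest mpk dose (typically 0.3–30) reaching 50% or more total activity.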

[1] = i.p. 15 min before behavioral test, most efficacious dose(s) of 3 doses
[2] = SmartCube, i.p. 15 min before test, most efficacious dose(s)

SMILES | minimal effective dose (i.p.) [mg/kg] | AD: ADHD (probability that activity matches class) [1] | AG: analgesic (probability that activity matches class) [1] | AX: anxiolytic (probability that activity matches class) [1] | CE: cognitive enhancer (probability that activity matches class) [1] | DP: anti-depressant (probability that activity matches class) [1] | MS: mood stabilizer (probability that activity matches class) [1] | PS: anti-psychotic (probability that activity matches class) [1] | SD: sedative hypnotic (probability that activity matches class) [1] | UN: uncharacterized CNS activity (probability that activity matches class) [1] | minimal effective dose [mg/kg] | AD: ADHD (probability that activity matches class) [2] | AG: analgesic (probability that activity matches class) [2] | AX: anxiolytic (probability that activity matches class) [2] | CE: cognitive enhancer (probability that activity matches class) [2] | DP: anti-depressant (probability that activity matches class) [2] | MS: mood stabilizer (probability that activity matches class) [2] | PS: anti-psychotic (probability that activity matches class) [2] | SD: sedative hypnotic (probability that activity matches class) [2] | UN: uncharacterized CNS activity (probability that activity matches class) [2]
CNC[C@H]1OCCc2c(-c3ccncc3)cccc21 [Compound 18, (S)—N-Methyl(5-(pyridin-4-yl)isochroman-1-yl)methanamine dihydrochloride salt] | 10 to 30 | + (LOQ ≤ + <5%) | + (LOQ ≤ + <5%) | + (LOQ ≤ + <5%) | + (LOQ ≤ + <5%) | ++++ (50% ≤ ++++) | + (LOQ ≤ + <5%) | + (LOQ ≤ + <5%) | + (LOQ ≤ + <5%) | + (LOQ ≤ + <5%) | – | – | – | – | – | – | – | – | – | –
NC[C@H]1OCCCc2c(-c3cncs3)cccc21 (single isomer, unassigned) [Compound 171, hydrochloride salt] | 10 to 30 | + (LOQ ≤ + <5%) | + (LOQ ≤ + <5%) | + (LOQ ≤ + <5%) | + (LOQ ≤ + <5%) | + (LOQ ≤ + <5%) | + (LOQ ≤ + <5%) | + (LOQ ≤ + <5%) | + (LOQ ≤ + <5%) | + (LOQ ≤ + <5%) | – | – | – | – | – | – | – | – | – | –
CNC[C@H]1OCCc2c(-c3cnco3)cccc21 (single isomer, unassigned) [Compound 97, hydrochloride salt] | ≤ 3 | + (LOQ ≤ + <5%) | ++ (5% ≤ ++ <25%) | ++ (5% ≤ ++ <25%) | + (LOQ ≤ + <5%) | ++ (5% ≤ ++ <25%) | + (LOQ ≤ + <5%) | ++ (5% ≤ ++ <25%) | ++++ (50% ≤ ++++) | ++ (5% ≤ ++ <25%) | – | – | – | – | – | – | – | – | – | –
NCC1OCCc2c(-c3ccncn3)cccc21 (stereo not shown) [Compound 60, (5-(Pyrimidin-4-yl)isochroman-1-yl)methanamine hydrochloride salt] | 3 to 10 | + (LOQ ≤ + <5%) | ++ (5% ≤ ++ <25%) | ++ (5% ≤ ++ <25%) | + (LOQ ≤ + <5%) | ++++ (50% ≤ ++++) | + (LOQ ≤ + <5%) | + (LOQ ≤ + <5%) | + (LOQ ≤ + <5%) | + (LOQ ≤ + <5%) | – | – | – | – | – | – | – | – | – | –
CNC[C@@H]1OCCc2c(-c3cnoc3)cccc21 (single isomer, unassigned) [Compound 84, hydrochloride salt] | 3 to 10 | ++ (5% ≤ ++ <25%) | + (LOQ ≤ + <5%) | ++ (5% ≤ ++ <25%) | ++ (5% ≤ ++ <25%) | ++ (5% ≤ ++ <25%) | + (LOQ ≤ + <5%) | + (LOQ ≤ + <5%) | + (LOQ ≤ + <5%) | ++ (5% ≤ ++ <25%) | – | – | – | – | – | – | – | – | – | –
NC[C@@H]1OCCc2c1cccc2-n1cccn1 [Compound 188, (R)-(5-(1H-pyrazol-1-yl)isochroman-1-yl)methanamine hydrochloride salt] | – | – | – | – | – | – | – | – | – | – | 10 to 30 | ++ (5% ≤ ++ <25%) | + (LOQ ≤ + <5%) | ++ (5% ≤ ++ <25%) | + (LOQ ≤ + <5%) | + (LOQ ≤ + <5%) | + (LOQ ≤ + <5%) | + (LOQ ≤ + <5%) | + (LOQ ≤ + <5%) | ++++ (50% ≤ ++++)
CNC[C@@H]1OCc2c(-c3cccnc3)cccc21 [Compound 33, (R)—N-Methyl-1-(4-(pyridin-3-yl)-1,3-dihydroisobenzofuran-1-yl)methanamine hydrochloride salt] | 10 to 30 | + (LOQ ≤ + <5%) | + (LOQ ≤ + <5%) | ++ (5% ≤ ++ <25%) | + (LOQ ≤ + <5%) | ++++ (50% ≤ ++++) | + (LOQ ≤ + <5%) | + (LOQ ≤ + <5%) | + (LOQ ≤ + <5%) | + (LOQ ≤ + <5%) | – | – | – | – | – | – | – | – | – | –
NC[C@H]1OCCc2c(-c3ccon3)cccc21 (single isomer, unassigned) [Compound 89, hydrochloride salt] | ≤ 3 | ++ (5% ≤ ++ <25%) | ++ (5% ≤ ++ <25%) | +++ (25% ≤ +++ <50%) | + (LOQ ≤ + <5%) | ++++ (50% ≤ ++++) | + (LOQ ≤ + <5%) | ++ (5% ≤ ++ <25%) | + (LOQ ≤ + <5%) | ++ (5% ≤ ++ <25%) | – | – | – | – | – | – | – | – | – | –
CNC[C@H]1OCCc2cc(-c3ncccn3)ccc21 [Compound 22, (S)—N-Methyl-1-(6-(pyrimidin-2-yl)isochroman-1-yl)methanamine hydrochloride salt] | 10 to 30 | + (LOQ ≤ + <5%) | ++ (5% ≤ ++ <25%) | ++ (5% ≤ ++ <25%) | ++ (5% ≤ ++ <25%) | ++ (5% ≤ ++ <25%) | + (LOQ ≤ + <5%) | + (LOQ ≤ + <5%) | + (LOQ ≤ + <5%) | +++ (25% ≤ +++ <50%) | – | – | – | – | – | – | – | – | – | –
NC[C@H]1OCCc2c1cccc2-n1ccnc1 [Compound 185, (S)-(5-(1H-Imidazol-1-yl)isochroman-1-yl)methanamine hydrochloride salt] | – | – | – | – | – | – | – | – | – | – | 10 to 30 | + (LOQ ≤ + <5%) | + (LOQ ≤ + <5%) | ++ (5% ≤ ++ <25%) | + (LOQ ≤ + <5%) | ++ (5% ≤ ++ <25%) | + (LOQ ≤ + <5%) | + (LOQ ≤ + <5%) | + (LOQ ≤ + <5%) | + (LOQ ≤ + <5%)
CNC[C@H]1OCCc2cc(-c3cccnn3)ccc21 (single isomer, unassigned) [Compound 32, hydrochloride] | > 30 | + (LOQ ≤ + <5%) | + (LOQ ≤ + <5%) | + (LOQ ≤ + <5%) | + (LOQ ≤ + <5%) | + (LOQ ≤ + <5%) | + (LOQ ≤ + <5%) | + (LOQ ≤ + <5%) | + (LOQ ≤ + <5%) | + (LOQ ≤ + <5%) | – | – | – | – | – | – | – | – | – | –
NC[C@@H]1OCCc2cccc(-c3cccnc3)c21 (single isomer, unassigned) [Compound 9, hydrochloride] | 10 to 30 | + (LOQ ≤ + <5%) | ++ (5% ≤ ++ <25%) | ++ (5% ≤ ++ <25%) | + (LOQ ≤ + <5%) | ++ (5% ≤ ++ <25%) | + (LOQ ≤ + <5%) | ++ (5% ≤ ++ <25%) | + (LOQ ≤ + <5%) | + (LOQ ≤ + <5%) | – | – | – | – | – | – | – | – | – | –
NC[C@@H]1OCCc2c(-c3ccncn3)cccc21 (single isomer, unassigned) [Compound 74, hydrochloride salt] | > 30 | + (LOQ ≤ + <5%) | + (LOQ ≤ + <5%) | + (LOQ ≤ + <5%) | + (LOQ ≤ + <5%) | ++ (5% ≤ ++ <25%) | + (LOQ ≤ + <5%) | + (LOQ ≤ + <5%) | + (LOQ ≤ + <5%) | + (LOQ ≤ + <5%) | – | – | – | – | – | – | – | – | – | –
